Data as given in US9340532B2, “Methods and compositions for inhibiting CNKSR1” (PHUSIS THERAPEUTICS, INC., priority 2012, dated 2016).
Several values for one entry are separate records, joined by “and”; a condition that tells them apart may be missing. Identical values can stand only once. Like-named read-outs stand apart in the source and are kept apart here.

How the values were obtained:
PH-domain of Tiam1 = test: SPR binding to expressed PH-domain of Tiam1
Experimental: (§1) In embodiments, the binding of identified compounds to the crystal structures of other PH-domain signaling proteins, AKT, PDPK1, Btk, and Tiam1 can be predicted. In such embodiments, the Kds exceed about 100 μM. In other embodiments, SPR can measure the binding of identified compounds to the expressed PH-domains of AKT, PDPK1 and Tiam1. […] Thus, the identified compounds appear have, at least, about 50 to about 100 fold selectivity for CNKSR1 compared to the other PH-domains studied.
(§2) A commercially available docking package, GOLD (GOLD [3.2], CCDC: Cambridge, UK, 2007) was used to evaluate the docking of compounds 1-7 into the binding pocket, see e.g. Table 5. Other docking was performed using modeling algorithms with state-of-the-art commercial drug discovery software (Schrodinger suite). GLIDE was chosen as the docking algorithm used to select and optimize compounds, providing a GlideScore as a rough estimate of binding affinity that was used to rank and select the best compounds. Additionally, ligand-based approaches provided an alternative to structure based drug discovery. Ligand-based virtual screening methodologies can take into account shape and electrostatics (like ROCS) and the pharmacophoric features (acceptor, donor, hydrophobic, aromatic, etc.) of its functional groups. […]

PH-domain of AKT = target: T1, PH-domain of AKT (Homo sapiens, UniProt P31749); test: SPR binding to expressed PH-domain of AKT
T1 construct: made in house
T1 sequence (P31749 5-108 limits assumed): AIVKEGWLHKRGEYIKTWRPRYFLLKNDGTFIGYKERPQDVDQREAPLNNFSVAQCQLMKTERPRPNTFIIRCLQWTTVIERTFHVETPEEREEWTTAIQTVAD
Experimental: as §1, §2

[1] = test system: mut-KRAS NSCLC cell lines; test: Screening against NSCLC cell line panel, mut-KRAS lines; format: cell-based; details: for inhibition of mut-KRAS cell growth (in words): FIG. 3 and FIG. 5
Experimental: (§3) The isogenic KRAS lines harboring G12D, G12C, and G12V were obtained from Horizon Discovery labs on a one year lease. These cells were cultured in McCoys media with 10% FBS to 80% confluency. Cells were then released from flasks via trypsinization and plated into 96-well plates at an initial density range of 2000 cells per well. Cells were allowed 24 hours to attach, and then the agents were added to the culture media at a range of concentrations from 0-100 μM. Cells were incubated for 72 hours with the drugs, and then viability was assessed using an MTS viability assay. Cells were exposed to MTS reagent (Promega) dissolved in PBS (Hyclone) at a concentration of 200 μL reagent/mL media for 2 hours. Absorbance was then read at 490 nm, and viability was expressed as a percentage normalized between the negative control (no cells plated) and the condition of cells with no drug added (100% viability) normalized as the upper limit of viability.
(§4) Our panel of 30 cell lines and an extensive characterization were obtained from Dr. John Minna (UTSW). All cell lines were cultured in RPMI 1640 with 10% FBS. Cells were treated with concentrations of agents at concentrations 0.01 to 50 μM and evaluated as described above. IC50's were determined using Excelfit.

PH-domain of PDPK1 = target: T2, PH-domain of PDPK1 (Homo sapiens, UniProt O15530); test: SPR binding to expressed PH-domain of PDPK1
T2 construct: made in house
T2 sequence (O15530 459-550 limits assumed): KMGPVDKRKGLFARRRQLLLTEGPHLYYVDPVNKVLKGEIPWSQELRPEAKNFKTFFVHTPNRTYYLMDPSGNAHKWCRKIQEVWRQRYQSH
Experimental: as §1, §2

[2] = Pharmacokinetics after oral administration; format: in vivo, mice; details: compound 8 administered orally to mice at the same dose (200 mg/kg); 200 mg/kg
Experimental: In order to understand better the reasons for the antitumor activity of compound #7 pharmacokinetic studies were conducted. […] Following oral administration in vivo plasma concentrations of the parent compound were low, about 3 μg/ml (7 μM) whereas the de-esterified acid form (compound 8) was present at high peak concentrations of around 50 μg/ml (128 μM). When compound 8 was administered orally to mice at the same dose even higher peak concentrations of 90 μg/ml (230 μM) were achieved.

[3] = Mouse pharmacokinetics (iv); format: in vivo; details: for clearance: in vivo
wt-KRAS NSCLC cell lines = test: Screening against NSCLC cell line panel, wt-KRAS lines; format: cell-based; details: for IC50: Table 6, mean of 3 wt-KRAS lines, read-out: NSCL cell line cytotoxicity IC50 wt-KRAS
Experimental: as §3, §4

CNK1 PH-domain (CNKSR1) = target: T3, CNK1 PH-domain (CNKSR1) (Homo sapiens, UniProt Q969H4); test: SPR binding assay (Biacore T100), CNK1 PH-domain; details: for Surface Plasmon Resonance CNKSR1 binding (RU max) / Surface Plasmon Resonance CNKSR1 stability (RU max post-injection): date 12 09 13
T3 construct: The PH-domain His-fusion proteins (CNK1 and AKT1) were expressed and immobilized on a NTA chip; made in house
T3 sequence (Q969H4 403-502 limits assumed): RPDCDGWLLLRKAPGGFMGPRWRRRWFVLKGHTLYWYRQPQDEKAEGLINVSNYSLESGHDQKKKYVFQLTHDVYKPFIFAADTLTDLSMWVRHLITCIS
Experimental: (§5) All interaction analyses were done with a Biacore T100 Control Software v3.2, and BIAevaluation v4.1 analysis software (Biacore). The PH-domain His-fusion proteins (CNK1 and AKT1) were expressed and immobilized on a NTA chip to a level of 10,000 response units or less. Small molecule analytes at concentrations ranging from 50 μM to 0.010 μM were injected at a high flow rate (30 μL/min) DMSO concentrations in all samples and running buffer were 1-5% (v/v).
(§6) Other docking was performed using modeling algorithms with state-of-the-art commercial drug discovery software (Schrodinger suite). […] Additionally, ligand-based approaches provided an alternative to structure based drug discovery. Ligand-based virtual screening methodologies can take into account shape and electrostatics (like ROCS) and the pharmacophoric features (acceptor, donor, hydrophobic, aromatic, etc.) of its functional groups. […] SPR interaction analyses of all other compounds was undertaken using a Biacore T100 with Control and Evaluation software kit.

AKT1 PH-domain = target: T4, AKT1 PH-domain (Homo sapiens, UniProt P31749); test: SPR binding assay (Biacore T100), AKT1 PH-domain; details: read-out: AKT KD
T4 construct: The PH-domain His-fusion proteins (CNK1 and AKT1) were expressed and immobilized on a NTA chip; made in house
T4 sequence (P31749 5-108 limits assumed): as the sequence (P31749 5-108 limits assumed) above
Experimental: as §5
(§7) A commercially available docking package, GOLD (GOLD [3.2], CCDC: Cambridge, UK, 2007) was used to evaluate the docking of compounds 1-7 into the binding pocket, see e.g. Table 5. Other docking was performed using modeling algorithms with state-of-the-art commercial drug discovery software (Schrodinger suite). GLIDE was chosen as the docking algorithm used to select and optimize compounds, providing a GlideScore as a rough estimate of binding affinity that was used to rank and select the best compounds. Additionally, ligand-based approaches provided an alternative to structure based drug discovery. Ligand-based virtual screening methodologies can take into account shape and electrostatics (like ROCS) and the pharmacophoric features (acceptor, donor, hydrophobic, aromatic, etc.) of its functional groups. Inositol tetraphosphate (IP4) binding to the PH-domain of CNKSR1 provided a good starting point for shape screening. Both structure-based and ligand-based approaches were used to find novel compounds (Table 7) and to refine and improve lead compounds (Tables 8, and 9). SPR interaction analyses for Compounds 1 through 7 were performed with a Biacore 2000, using Biacore2000 Control Software v3.2 and BIAevaluation v4.1 analysis software (Biacore) as described in Mol Cancer Ther 7:2621 (2008). SPR interaction analyses of all other compounds was undertaken using a Biacore T100 with Control and Evaluation software kit.

[4] = test system: H226 (KRAS wildtype cell line); test: Proliferation Assay H226; format: cell-based; details: Homo sapiens, NCI-H226, n = 1
Experimental: as §3, §4

[5] = test system: H1373 (KRAS mutant cell line); test: Proliferation Assay H1373; format: cell-based; details: Homo sapiens, NCI-H1373, N = 2 experiments
Experimental: as §3, §4

[6] = test system: H1975 (KRAS wildtype cell line); test: Proliferation Assay H1975; format: cell-based; details: Homo sapiens, NCI-H1975, n = 1
Experimental: as §3, §4

[7] = test system: A549 (KRAS mutant cell line); test: Proliferation Assay A549; format: cell-based; details: Homo sapiens, N = 2 experiments
Experimental: as §3, §4

PLE = test: SPR binding, PLE; details: Table 8
Experimental: as §7, with “SPR interaction analyses of all other compounds was undertaken using a Biacore T100 with Control and Evaluation software kit.” left out

PH-domain of CNKSR1 = target: T5, PH-domain of CNKSR1 (Homo sapiens, UniProt Q969H4); test: SPR binding (Biacore 2000) to CNKSR1 PH-domain, initial hits; details: Table 5
T5 sequence (Q969H4 403-502 limits assumed): T3 sequence (Q969H4 403-502 limits assumed)
Experimental: In embodiments, a homology model for the PH-domain of CNSKR1 based on known PH-domain crystal structures can be developed. The docking program PHuDock® can be used to identify potential inhibitors of CNKSR1. […] The binding of the compounds to the expressed PH-domain of CNKSR1 (KDobs) can be measured by surface plasmon resonance (SPR) spectroscopy.
as §6

[8] = Table 6, mean of 3 mut-KRAS lines, read-out: NSCL cell line cytotoxicity IC50 mut-KRAS

Row | t1/2β [3] [min] | clearance [3] [mL/min/kg] | Kd (CNK1 PH-domain (CNKSR1); Table 6, read-out: CNKS KD) [nM] | IC50 [4] [µM] | IC50 [5] [µM] | IC50 [6] [µM] | IC50 [7] [µM] | SMILES | IC50 [1, 8] [µM] | IC50 (wt-KRAS NSCLC cell lines) [µM] | further results
1 |  |  |  |  |  |  |  | CCOC(=O)Cc1nn(SCC(=O)O)c(=O)c2ccccc12 [#4] |  |  | SPR binding to PH-domain of Tiam1 (PH-domain of Tiam1): No measurable binding; SPR binding to PH-domain of AKT (PH-domain of AKT): No measurable binding; inhibition of mut-KRAS cell growth (in words) [1]: low micromolar inhibition; SPR binding to PH-domain of PDPK1 (PH-domain of PDPK1): No measurable binding
2 | 72 | 4740 | > 100000 |  |  |  |  | Cc1ccc(-c2csc(Cn3nc(CC(=O)O)c4ccccc4c3=O)n2)cc1 [Compound 8] | > 100 | > 100 | activity in cells in culture ([1]; FIG. 5): inactive; peak plasma concentration [2]: 90 μg/ml and 230 μM; Kd (AKT1 PH-domain; Table 6): 51.6 µM
3 | 260 | 133 | 26 | > 100 | > 100 | 100 | 42 | Cc1ccc(-c2csc(Cn3nc(CC4OCCCO4)c4ccccc4c3=O)n2)cc1 [Compound 9] | 25 | 55 | Kd (AKT1 PH-domain; Table 6): 66.3 µM
4 | 245 | 119 | 4120 |  |  |  |  | Cc1ccc(-c2csc(Cn3nc(Cc4nccs4)c4ccccc4c3=O)n2)cc1 [Compound 10] | 34 | 46 | inhibition of mut-KRAS cell growth (in words) [1]: inhibited the growth; selectivity for mut-KRAS cells compared to wt-KRAS cells ([1]; NSCLC cell lines): approximately two fold; inhibition of wt-KRAS cell growth (in words) (wt-KRAS NSCLC cell lines; FIG. 5): also inhibited
5 |  |  |  | > 100 | > 100 | > 100 | > 100 | CCOC(=O)/C=C/c1cc(NS(=O)(=O)c2cccs2)c2c(c1O)OCO2 [Compound 88, (E)-ethyl 3-(4-hydroxy-7-(thiophene-2-sulfonamido)benzo[d][1,3]dioxol-5-yl)acrylate] |  |  | Kd (PLE): 261 µM; Kd (CNK1 PH-domain (CNKSR1); Table 8, read-out: CNK KD): 186 nM; Surface Plasmon Resonance CNKSR1 binding (RU max) (CNK1 PH-domain (CNKSR1)): 0.817 RU * 100/Da; Surface Plasmon Resonance CNKSR1 stability (RU max post-injection) (CNK1 PH-domain (CNKSR1)): 1.138 RU * 100/Da; Kd (AKT1 PH-domain; Table 8): 75.2 µM
6 |  |  |  | > 100 | > 100 | > 100 | 75 | CCOC(=O)/C=C/c1c(O)c(OC)cc(NS(=O)(=O)c2cccs2)c1SC [Compound 103, ethyl (2E)-3-[2-hydroxy-3-methoxy-6-(methylsulfanyl)-5-(thiopliene-2-sulfonamido)phenyl]prop-2-enoate] |  |  | Kd (PLE): 300 µM; Kd (CNK1 PH-domain (CNKSR1); Table 8, read-out: CNK KD): 157 nM; Surface Plasmon Resonance CNKSR1 binding (RU max) (CNK1 PH-domain (CNKSR1)): 2.635 RU * 100/Da; Surface Plasmon Resonance CNKSR1 stability (RU max post-injection) (CNK1 PH-domain (CNKSR1)): 3.148 RU * 100/Da; Kd (AKT1 PH-domain; Table 8): 330 µM
7 |  |  |  |  |  |  |  | CC(=O)Nc1cccc(-n2nnc(SCC(=O)c3cc(-c4ccccc4)no3)n2)c1 [Compound 120] |  |  | IC50 ([1]; Table 5, read-out: Mean IC50 mut-KRAS): 47 ± 5.2 µM; Kd (PH-domain of CNKSR1): 3.3 ± 1.2 µM
